# From the Kinase Knowledgebase extract (Sharma et al. 2016)
# Target: MAPK14 (human) (UniProt Q16539)
# Assay: Inhibition of MAPK14 Kinase Activity
# Chain of MAPK14 (human) (Q16539 whole entry, looked up): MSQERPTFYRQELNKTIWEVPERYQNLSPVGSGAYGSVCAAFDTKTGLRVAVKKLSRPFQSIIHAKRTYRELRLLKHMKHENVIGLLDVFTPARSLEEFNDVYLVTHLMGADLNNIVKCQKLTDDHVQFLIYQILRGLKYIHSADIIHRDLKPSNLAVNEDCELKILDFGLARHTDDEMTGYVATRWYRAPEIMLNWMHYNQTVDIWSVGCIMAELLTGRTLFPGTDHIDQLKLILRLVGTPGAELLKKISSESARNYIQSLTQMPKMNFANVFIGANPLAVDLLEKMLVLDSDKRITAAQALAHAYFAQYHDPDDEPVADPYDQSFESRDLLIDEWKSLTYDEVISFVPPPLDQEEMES
row,SMILES,IC50
1,COc1ccc2cc(C(C)C(=O)NCc3nc(-c4ccc(F)cc4)c(-c4nc(C(=O)NC(C)C)cs4)o3)ccc2c1 (centres undefined),≤ 1000 nM
2,CC(C)CC(NC(=O)OC(C)(C)C)C(=O)N1CCC(c2[nH]nc(-c3ccc(F)cc3)c2-c2nc(C(=O)NC(C)C)cs2)CC1 (centres undefined),≤ 1000 nM
3,COc1cc(CNC(=O)c2csc(-c3sc(C)nc3-c3ccc(F)cc3)n2)cc(OC)c1,≤ 1000 nM
4,CC(C)NC(=O)c1csc(-c2oc(CNC(=O)c3cc(Br)ccc3Cl)nc2-c2ccc(F)cc2)n1,≤ 1000 nM
5,CC(C)NC(=O)c1csc(-c2oc(CNC(=O)C=Cc3ccccc3F)nc2-c2ccc(F)cc2)n1,≤ 1000 nM
6,C#CCNC(=O)c1csc(-c2sc(C)nc2-c2ccc(F)cc2)n1,≤ 1000 nM
7,Cc1onc(-c2ccc(Cl)cc2)c1-c1ccn(C(=O)NC(C)C)n1,≤ 1000 nM
8,Cc1onc(-c2ccc(F)cc2)c1-c1nc(C(=O)NC(C)C)cs1,≤ 1000 nM
9,CC(C)NC(=O)c1csc(-c2oc(CNC(C)C(C)C)nc2C2=CC=C(F)OC2)n1 (centres undefined),≤ 1000 nM
10,Cc1nc(-c2ccc(F)cc2)c(-c2nc(C(=O)NCC3CC3)cs2)s1,≤ 1000 nM
11,CC(C)NC(=O)c1csc(-c2c(-c3ccc(F)cc3)noc2CNC(=O)c2ccc([N+](=O)[O-])cc2Cl)n1,≤ 1000 nM
12,Cc1nc(-c2ccc(F)cc2)c(-c2nc(C(=O)NCCc3ccccc3)cs2)s1,≤ 1000 nM
13,CNC(=O)c1csc(-c2c(-c3ccc(F)cc3)n[nH]c2C2CCNCC2)n1,≤ 1000 nM
14,CC(C)NC(=O)c1csc(-c2oc(CNC(=O)C3CN(C(=O)OC(C)(C)C)CCN3)nc2-c2ccc(F)cc2)n1 (centres undefined),≤ 1000 nM
15,CC(C)NC(=O)c1csc(-c2oc(CNC(=O)Cc3c(F)cccc3F)nc2-c2ccc(F)cc2)n1,≤ 1000 nM
16,CC(C)NC(=O)c1csc(-c2oc(CNCCC(C)(C)C)nc2-c2ccc(F)cc2)n1,≤ 1000 nM
17,CC(=O)c1ccc(C(=O)NCc2nc(-c3ccc(F)cc3)c(-c3nc(C(=O)NC(C)C)cs3)o2)cc1,≤ 1000 nM
18,CC(C)NC(=O)c1csc(-c2oc(CN3CCN(C(=O)c4ccccc4O)CC3)nc2-c2ccc(F)cc2)n1,≤ 1000 nM
19,CC(C)NC(=O)c1csc(-c2c(-c3ccc(F)cc3)n[nH]c2C2CCN(C(=O)c3ccc(C(C)(C)C)cc3)CC2)n1,≤ 1000 nM
20,Cc1nc(Br)sc1C(=O)NCc1nc(-c2ccc(F)cc2)c(-c2nc(C(=O)NC(C)C)cs2)o1,≤ 1000 nM
21,CC(C)NC(=O)c1csc(-c2c(-c3ccc(F)cc3)noc2CNC(=O)C(F)(F)F)n1,≤ 1000 nM
22,CC(C)NC(=O)c1csc(-c2oc(CNC(=O)c3ccc([N+](=O)[O-])cc3Cl)nc2-c2ccc(F)cc2)n1,≤ 1000 nM

row,SMILES,IC50
1,CC(C)NC(=O)c1csc(-c2oc(CN3CCN(C(=O)Cc4cccc(O)c4)CC3)nc2-c2ccc(F)cc2)n1,≤ 1000 nM
2,CC(C)NC(=O)c1csc(-c2[nH]c(CO)nc2-c2ccc(F)cc2)n1,≤ 1000 nM
3,CC(C)NC(=O)c1csc(-c2oc(CNC(=O)c3ccc4ncccc4c3)nc2-c2ccc(F)cc2)n1,≤ 1000 nM
4,CC(C)NC(=O)c1csc(-c2oc(CN3CCN(C(=O)c4cc(O)c(O)c(O)c4)CC3)nc2-c2ccc(F)cc2)n1,≤ 1000 nM
5,CC(C)NC(=O)c1csc(-c2oc(CN3CCN(C(=O)Cc4ccccc4O)CC3)nc2-c2ccc(F)cc2)n1,≤ 1000 nM
6,CCNC(=O)c1csc(-c2c(-c3ccc(F)cc3)n[nH]c2C2CCN(C(=O)CO)CC2)n1,≤ 1000 nM
7,COC[C@H]1CCCN1C(=O)c1csc(-c2sc(C)nc2-c2ccc(F)cc2)n1,≤ 1000 nM
8,CC(C)NC(=O)c1csc(-c2[nH]c(N)nc2-c2ccc(F)cc2)n1,≤ 1000 nM
9,Cc1nc(-c2ccc(F)cc2)c(-c2nc(C(=O)N[C@@H](C)c3ccccc3)cs2)s1,≤ 1000 nM
10,Cc1nc(-c2ccc(F)cc2)c(-c2nc(C(=O)NCC3CCCCC3)cs2)s1,≤ 1000 nM
11,CC(C)NC(=O)c1csc(-c2oc(CNC(=O)C(C)c3ccc(O)cc3)nc2-c2ccc(F)cc2)n1 (centres undefined),≤ 1000 nM
12,O=C(NCc1cccnc1)c1csc(-c2c(-c3ccc(F)cc3)n[nH]c2C2CCNCC2)n1,≤ 1000 nM
13,CC(C)NC(=O)c1csc(-c2c(-c3ccc(F)cc3)n[nH]c2C2CCN(C(=O)c3ccc(C=O)cc3)CC2)n1,≤ 1000 nM
14,CC(C)NC(=O)c1csc(-c2oc(CNC(=O)c3cnc(O)c(Cl)c3)nc2-c2ccc(F)cc2)n1,≤ 1000 nM
15,CC(C)NC(=O)c1csc(-c2c(-c3ccc(F)cc3)ncn2C2CCNCC2)n1,≤ 1000 nM
16,CC(C)NC(=O)c1csc(-c2c(-c3ccc(F)cc3)noc2CNCCCN2CCCC2=O)n1,≤ 1000 nM
17,CC(C)NC(=O)c1csc(-c2c(-c3ccc(F)cc3)noc2CNC(=O)C=Cc2ccccc2F)n1,≤ 1000 nM
18,CC(C)NC(=O)c1csc(-c2oc(CNC(=O)c3cccnc3Cl)nc2-c2ccc(F)cc2)n1,≤ 1000 nM
19,CC(C)NC(=O)c1csc(-c2c(-c3ccc(F)cc3)noc2C2CCN(C(=O)CO)CC2)n1,≤ 1000 nM
20,CCN(Cc1onc(-c2ccc(F)cc2)c1-c1nc(C(=O)NC(C)C)cs1)C(Cc1ccccc1)c1ccco1 (centres undefined),≤ 1000 nM
21,CC(C)NC(=O)c1csc(-c2oc(CN3CCN(C(=O)c4ccccc4Cc4ccccc4)CC3)nc2-c2ccc(F)cc2)n1,≤ 1000 nM
22,CC(C)NC(=O)c1csc(-c2c(-c3ccc(F)cc3)n[nH]c2C2CCN(C(=O)Cc3ccccc3O)CC2)n1,≤ 1000 nM
